Laboratory results reported in US20120294879A1, “CONSENSUS SEQUENCE FOR INFLUENZA A VIRUS” (priority 2009, published 2012).
“Also recorded” adds a separate entry of the source. Read-outs that look alike come from different tables or passages of the source.

Legend:
[1] = test system: HLA alleles; conditions: epitopes extracted from the IEDB, humans infected with influenza A, cited from earlier work
[2] = test system: splenocytes of HLA-DR4 (DRB1*0401) transgenic mice; format: cell-based; design: key: — represents no positive ELISpot response
[3] = test system: splenocytes of HLA-A24 (A*2402) transgenic mice; format: cell-based; design: key to A24: average IFN-γ spots forming cells per million splenocytes: — represents no positive ELISpot response
[4] = test system: splenocytes of HLA-DR3 (DRB1*0301) transgenic mice; format: cell-based; design: key to DR3: average IFN-γ spots forming cells per million splenocytes: — represents no positive ELISpot response
[5] = test system: splenocytes of HLA-B7 (B*0702) transgenic mice; format: cell-based; design: key to B7: average IFN-γ spots forming cells per million splenocytes: — represents no positive ELISpot response
[6] = test system: HLA-A2, -A24, -B7, -DR2, -DR3 and -DR4 transgenic mice; format: cell-based; design: key to HLA allele this work (HLA restriction by ELISpot): —represents no positive ELISpot response
[7] = test system: splenocytes of HLA-DR2 (DRB1*1501) transgenic mice; format: cell-based; design: key to DR2: average IFN-γ spots forming cells per million splenocytes: — represents no positive ELISpot response

| Sequence | Published HLA alleles (reported human T cell epitopes) [1] | DR4: average IFN-γ spots forming cells per million splenocytes [2] | A24: average IFN-γ spots forming cells per million splenocytes [3] | DR3: average IFN-γ spots forming cells per million splenocytes [4] | B7: average IFN-γ spots forming cells per million splenocytes [5] | HLA allele this work (HLA restriction by ELISpot) [6] | DR2: average IFN-γ spots forming cells per million splenocytes [7] | A24: lowest concentration of peptide giving positive ELISpot response in peptide titration [3] | DR3: lowest concentration of peptide giving positive ELISpot response in peptide titration [4] | B7: lowest concentration of peptide giving positive ELISpot response in peptide titration [5] | lowest peptide concentration giving positive IFN-γ ELISpot response (apparent functional avidity) [6] | DR2: lowest concentration of peptide giving positive ELISpot response in peptide titration [7] | Published HLA alleles (reported human T cell epitopes) ([1]; listed as NP 402-418) | Published HLA alleles (reported human T cell epitopes) ([1]; listed as M1 169-185) |
| --- | --- | --- | --- | --- | --- | --- | --- | --- | --- | --- | --- | --- | --- | --- |
| RMVLASTTAK [reference compound] | HLA-A3 and -A11 |  |  |  |  |  |  |  |  |  |  |  |  |  |
| ERRNKYLEEHPSAGKDP | DR1, DRB1*0101 | 121 ± 1(0.1) IFN-γ spots forming cells per million splenocytes | — | — | — | DR4 | — |  |  |  |  |  |  |  |
| RGILEDEQMYQRCCNLF |  | — | 78 ± 4 IFN-γ spots forming cells per million splenocytes | 181 ± 10(0.1) IFN-γ spots forming cells per million splenocytes | — | both HLA class I and II alleles | — | (0.1) μg/ml | 181 ± 10(0.1) μg/ml |  |  |  |  |  |
| NQPEWFRNILSIAPIMF |  | — | — | — | 60 ± 8 IFN-γ spots forming cells per million splenocytes |  | — |  |  | (10) μg/ml | solely at the highest peptide concentration |  |  |  |
| NTYQWIIRNWETVKIQW |  | — | 322 ± 44 IFN-γ spots forming cells per million splenocytes | — | — | both HLA class I and II alleles | 96 ± 9(0.1) IFN-γ spots forming cells per million splenocytes | (0.1) μg/ml |  |  |  | 96 ± 9(0.1) μg/ml |  |  |
| KWMMAMKYPITADKRIT |  | 161 ± 18(0.1) IFN-γ spots forming cells per million splenocytes | — | — | — | DR4 | — |  |  |  |  |  |  |  |
| TQPTFSVQRNLPFDKTT |  | — | — | 41 ± 2(10) IFN-γ spots forming cells per million splenocytes | — |  | 110 ± 14(1) IFN-γ spots forming cells per million splenocytes |  | 41 ± 2(10) μg/ml |  | solely at the highest peptide concentration | 110 ± 14(1) μg/ml |  |  |
| VLSAFDERRNKYLEEHP | DRB1*0101 |  |  |  |  | — |  |  |  |  |  |  |  |  |
| GKGYMFESKSMKLRTQI |  | — | — | — | — | DR2 | 52 ± 2(1) IFN-γ spots forming cells per million splenocytes |  |  |  |  | 52 ± 2(1) μg/ml |  |  |
| SAGQISTQPTFSVQRNL |  | — | — | — | — | DR2 | 207 ± 3(0.1) IFN-γ spots forming cells per million splenocytes |  |  |  |  | 207 ± 3(0.1) μg/ml | DRB1*0101,; also recorded: DRB1*0404 |  |
| GYTMDTVNRTHQYSERG |  | 125 ± 11(0.1) IFN-γ spots forming cells per million splenocytes | — | — | — | DR4 | — |  |  |  |  |  |  |  |
| TNPLIRHENRMVLASTT |  | — | — | 120 ± 4(0.1) IFN-γ spots forming cells per million splenocytes | — | DR2, DR3 | 56 ± 5(0.1) IFN-γ spots forming cells per million splenocytes |  | 120 ± 4(0.1) μg/ml |  |  | 56 ± 5(0.1) μg/ml |  | B39, DR2, DRB1*0103,; also recorded: DRB1*1101,; also recorded: DRB1*0701, DRB5*0101 |
| LEVCFMYSDFHFINEQG |  | — | — | — | — | DR2 | 64 ± 11(1) IFN-γ spots forming cells per million splenocytes |  |  |  |  | 64 ± 11(1) μg/ml |  |  |
| HENRMVLASTTAKAMEQ | A3, A11, DRB1*0701 | 165 ± 1(0.1) IFN-γ spots forming cells per million splenocytes | — | — | — | DR4 | — |  |  |  |  |  |  |  |
| RCHRGDTQIQTRRSFEI |  | — | — | — | — | DR2 | 194 ± 47(0.1) IFN-γ spots forming cells per million splenocytes |  |  |  |  | 194 ± 47(0.1) μg/ml |  |  |
| VLYDKEEIRRIWRQANN | DRB1*1101 | — | — | 501 ± 42(0.1) IFN-γ spots forming cells per million splenocytes | — | DR3 | — |  | 501 ± 42(0.1) μg/ml |  |  |  |  |  |
